Reference: patent publication US20260138958A1, “SUBSTITUTED N-PHENYLURACILS AND SALTS THEREOF, AND USE THEREOF AS HERBICIDAL ACTIVE SUBSTANCES” (Bayer Aktiengesellschaft, priority 2022, published 2026)

What was measured:
Type in all cases: in vivo
[1] = system: Triticum aestivum (TRZAS); test: Post-emergence crop plant compatibility, greenhouse pot test
Experimental: (§1) Seeds of monocotyledonous and dicotyledonous weeds and crop plants were placed in sandy loam in plastic or wood-fibre pots, covered with soil and cultivated in a greenhouse under controlled growth conditions. 2 to 3 weeks after sowing, the test plants were treated at the one-leaf stage. The compounds of the invention, formulated in the form of wettable powders (WP) or as emulsion concentrates (EC), were then sprayed onto the green parts of the plants as aqueous suspension or emulsion with addition of 0.5% additive at a water application rate of 600 l/ha (converted). After the test plants had been kept in the greenhouse under optimum growth conditions for about 3 weeks, the activity of the preparations was rated visually in comparison to untreated controls. For example, 100% activity=the plants have died, 0% activity=like control plants.
The observed effects on selected crop plants are reported here in comparison to the untreated controls (values in %).

Lolium rigidum (LOLRI) = test: Post-emergence herbicidal action, greenhouse pot test
Experimental: as §1

[2] = system: Pharbitis purpurea (PHBPU); test: as above; conditions: for pest or weed control at 5 g/ha / pest or weed control at 20 g/ha: Ipomoea purpurea, 504 h; for pest or weed control at 5 g/ha: read-out: Post-emergence effect at 5 g/ha against PHBPU in %; for pest or weed control at 20 g/ha: read-out: Post-emergence effect at 20 g/ha against PHBPU in %
Experimental: as §1

[3] = system: Tripleurospermum inodorum (MATIN); test: as above; conditions: 20 g/ha; for pest or weed control at 20 g/ha: Tripleurospermum inodorum, 504 h, read-out: Post-emergence effect at 20 g/ha against MATIN in %
Experimental: as §1

[4] = system: Echinochloa crus-galli (ECHCG); test: as above; conditions: for pest or weed control at 20 g/ha: Echinochloa crus-galli, 504 h, read-out: Post-emergence effect at 20 g/ha against ECHCG in %
Experimental: as §1

Setaria viridis (SETVI) = test: as above; conditions: for pest or weed control at 5 g/ha / pest or weed control at 20 g/ha: Setaria viridis, 504 h; for pest or weed control at 5 g/ha: read-out: Post-emergence effect at 5 g/ha against SETVI in %; for pest or weed control at 20 g/ha: read-out: Post-emergence effect at 20 g/ha against SETVI in %
Experimental: as §1

[5] = system: Polygonum convolvulus (POLCO); test: as above; conditions: for pest or weed control at 5 g/ha / pest or weed control at 20 g/ha: Fallopia convolvulus, 504 h; for pest or weed control at 5 g/ha: read-out: Post-emergence effect at 5 g/ha against POLCO in %; for pest or weed control at 20 g/ha: read-out: Post-emergence effect at 20 g/ha against POLCO in %
Experimental: as §1

[6] = system: Digitaria sanguinalis (DIGSA); test: as above
Experimental: as §1

Bassia scoparia (KCHSC) = test: as above
Experimental: as §1

[7] = system: Abutilon theophrasti (ABUTH); test: as above; conditions: for pest or weed control at 5 g/ha / pest or weed control at 20 g/ha: Abutilon theophrasti, 504 h; for pest or weed control at 5 g/ha: read-out: Post-emergence effect at 5 g/ha against ABUTH in %; for pest or weed control at 20 g/ha: read-out: Post-emergence effect at 20 g/ha against ABUTH in %
Experimental: as §1

[8] = system: Amaranthus retroflexus (AMARE); test: as above; conditions: for pest or weed control at 1.25 g/ha / pest or weed control at 5 g/ha / pest or weed control at 20 g/ha: Amaranthus retroflexus, 504 h; for pest or weed control at 1.25 g/ha: read-out: Post-emergence effect at 1.25 g/ha against AMARE in %; for pest or weed control at 5 g/ha: read-out: Post-emergence effect at 5 g/ha against AMARE in %; for pest or weed control at 20 g/ha: read-out: Post-emergence effect at 20 g/ha against AMARE in %
Experimental: as §1

Viola tricolor (VIOTR) = test: as above; conditions: for pest or weed control at 20 g/ha: Viola tricolor, 504 h, read-out: Post-emergence effect at 20 g/ha against VIOTR in %
Experimental: as §1

[9] = system: Alopecurus myosuroides (ALOMY); test: as above; conditions: 20 g/ha; for pest or weed control at 20 g/ha: Alopecurus myosuroides, 504 h, read-out: Post-emergence effect at 20 g/ha against ALOMY in %
Experimental: as §1

Veronica persica (VERPE) = test: as above; conditions: for pest or weed control at 5 g/ha / pest or weed control at 20 g/ha: Veronica persica, 504 h; for pest or weed control at 5 g/ha: read-out: Post-emergence effect at 5 g/ha against VERPE in %; for pest or weed control at 20 g/ha: read-out: Post-emergence effect at 20 g/ha against VERPE in %
Experimental: as §1

Row | SMILES | Post-emergence effect at 20 g/ha against LOLRI in % (Lolium rigidum (LOLRI)) | Post-emergence effect at 1.25 g/ha against ECHCG in % [4] | Post-emergence effect at 5 g/ha against ECHCG in % [4] | Post-emergence effect at 1.25 g/ha against SETVI in % (Setaria viridis (SETVI)) | Post-emergence effect at 1.25 g/ha against DIGSA in % [6] | Post-emergence effect at 5 g/ha against DIGSA in % [6] | Post-emergence effect at 20 g/ha against DIGSA in % [6] | Post-emergence effect at 1.25 g/ha against KCHSC in % (Bassia scoparia (KCHSC)) | Post-emergence effect at 5 g/ha against KCHSC in % (Bassia scoparia (KCHSC)) | Post-emergence effect at 20 g/ha against KCHSC in % (Bassia scoparia (KCHSC)) | Post-emergence effect at 1.25 g/ha against ABUTH in % [7] | Post-emergence effect at 1.25 g/ha against VIOTR in % (Viola tricolor (VIOTR)) | Post-emergence effect at 5 g/ha against VIOTR in % (Viola tricolor (VIOTR)) | Post-emergence effect at 1.25 g/ha against VERPE in % (Veronica persica (VERPE)) | Post-emergence effect at 1.25 g/ha against TRZAS in % ([1]; Triticum aestivum, in vivo) | pest or weed control at 5 g/ha ([2]; 5 g/ha) | pest or weed control at 20 g/ha ([2]; 20 g/ha) | pest or weed control at 20 g/ha [3] | pest or weed control at 20 g/ha ([4]; 20 g/ha) | pest or weed control at 5 g/ha (Setaria viridis (SETVI); 5 g/ha) | also measured
1 | Cn1c(C(F)(F)F)cc(=O)n(-c2cc(Oc3ccccc3OCC(=O)OCC3CC3(C)C)c(Cl)cc2F)c1=O (stereo not drawn) [I.7-9] | 90% | 80% | 100% | 100% | 100% | 100% | 100% | 90% | 100% | 100% | 100% | 100% | 100% | 90% |  |  |  |  |  |  | Post-emergence effect at 1.25 g/ha against TRZAS in % ([1]; crop plant, post-emergence, 1.25 g/ha): 20%; Post-emergence effect at 1.25 g/ha against PHBPU in % ([2]; 1.25 g/ha): 100%; Post-emergence effect at 5 g/ha against PHBPU in % ([2]; 5 g/ha): 100%; Post-emergence effect at 20 g/ha against PHBPU in % ([2]; 20 g/ha): 100%; Post-emergence effect at 20 g/ha against MATIN in % [3]: 100%; Post-emergence effect at 20 g/ha against ECHCG in % ([4]; 20 g/ha): 100%; Post-emergence effect at 5 g/ha against SETVI in % (Setaria viridis (SETVI); 5 g/ha): 100%; Post-emergence effect at 20 g/ha against SETVI in % (Setaria viridis (SETVI); 20 g/ha): 100%; Post-emergence effect at 20 g/ha against POLCO in % ([5]; 20 g/ha): 100%; Post-emergence effect at 5 g/ha against ABUTH in % ([7]; 5 g/ha): 100%; Post-emergence effect at 20 g/ha against ABUTH in % ([7]; 20 g/ha): 100%; Post-emergence effect at 1.25 g/ha against AMARE in % ([8]; 1.25 g/ha): 100%; Post-emergence effect at 5 g/ha against AMARE in % ([8]; 5 g/ha): 100%; Post-emergence effect at 20 g/ha against AMARE in % ([8]; 20 g/ha): 100%; Post-emergence effect at 20 g/ha against VIOTR in % (Viola tricolor (VIOTR); 20 g/ha): 100%; Post-emergence effect at 20 g/ha against ALOMY in % [9]: 100%; Post-emergence effect at 5 g/ha against VERPE in % (Veronica persica (VERPE); 5 g/ha): 100%; Post-emergence effect at 20 g/ha against VERPE in % (Veronica persica (VERPE); 20 g/ha): 100%
2 | Cn1c(C(F)(F)F)cc(=O)n(-c2cc(Oc3ccccc3OCC(=O)OCC3CCC3)c(Cl)cc2F)c1=O [I.7-10, Cyclobutylmethyl (2-{2-chloro-4-fluoro-5-[3-methyl-2,6-dioxo-4-(trifluoromethyl)-3,6-dihydropyrimidin-1(2H)-yl]phenoxy}phenoxy)acetate] | 100% | 100% | 100% | 100% | 80% | 100% | 100% | 100% | 100% | 100% | 100% | 100% | 100% | 100% | 20% | 100% | 100% | 100% | 100% | 100% | pest or weed control at 20 g/ha (Setaria viridis (SETVI); 20 g/ha): 100%; Post-emergence effect at 1.25 g/ha against POLCO in % ([5]; 1.25 g/ha): 100%; pest or weed control at 5 g/ha [5]: 100%; pest or weed control at 20 g/ha ([5]; 20 g/ha): 100%; pest or weed control at 5 g/ha ([7]; 5 g/ha): 100%; pest or weed control at 20 g/ha ([7]; 20 g/ha): 100%; pest or weed control at 1.25 g/ha ([8]; 1.25 g/ha): 100%; pest or weed control at 5 g/ha ([8]; 5 g/ha): 100%; pest or weed control at 20 g/ha ([8]; 20 g/ha): 100%; pest or weed control at 20 g/ha (Viola tricolor (VIOTR); 20 g/ha): 100%; pest or weed control at 20 g/ha [9]: 100%; pest or weed control at 5 g/ha (Veronica persica (VERPE); 5 g/ha): 100%; pest or weed control at 20 g/ha (Veronica persica (VERPE); 20 g/ha): 100%
3 | CC(OC(=O)COc1ccccc1Oc1cc(-n2c(=O)cc(C(F)(F)F)n(C)c2=O)c(F)cc1Cl)C1CC1 (stereo not drawn) [I.7-2, 1-Cyclopropylethyl (2-{2-chloro-4-fluoro-5-[3-methyl-2,6-dioxo-4-(trifluoromethyl)-3,6-dihydropyrimidin-1(2H)-yl]phenoxy}phenoxy)acetate] | 100% |  | 100% | 100% | 100% | 100% | 100% | 100% | 100% | 100% | 80% | 100% | 100% | 100% | 10% | 100% | 100% | 100% | 100% | 100% | pest or weed control at 20 g/ha (Setaria viridis (SETVI); 20 g/ha): 100%; pest or weed control at 5 g/ha [5]: 100%; pest or weed control at 20 g/ha ([5]; 20 g/ha): 100%; pest or weed control at 5 g/ha ([7]; 5 g/ha): 100%; pest or weed control at 20 g/ha ([7]; 20 g/ha): 100%; pest or weed control at 1.25 g/ha ([8]; 1.25 g/ha): 100%; pest or weed control at 5 g/ha ([8]; 5 g/ha): 100%; pest or weed control at 20 g/ha ([8]; 20 g/ha): 100%; pest or weed control at 20 g/ha (Viola tricolor (VIOTR); 20 g/ha): 100%; pest or weed control at 20 g/ha [9]: 80%; pest or weed control at 5 g/ha (Veronica persica (VERPE); 5 g/ha): 100%; pest or weed control at 20 g/ha (Veronica persica (VERPE); 20 g/ha): 100%
